Like-named read-outs stand apart in the source and are kept apart here.
Tested on: Lox-IMVI melanoma cell line
Assay: Lox-IMVI anti-proliferative assay (growth inhibition, Cell Titer-Glo)
Format: cell-based, human
Settings: Homo sapiens
How it was run: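 Luminescence from cellular ATP measured viability at compound addition and again after 72 h of exposure (37 °C, 5% CO2, RPMI + 10% FBS). Doses spanned 0.5 nM to 10 μM in ten 3-fold steps with 0.2% DMSO. Values were fitted as % of DMSO-treated cells by sigmoidal dose-response.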

[1] = Lox-IMVI melanoma cell line, anti-proliferative assay, read-out: Activity (IC50 activity level)
[2] = IC50 activity level in the cell-based Lox-IMVI anti-proliferative assay, read-out: Activity
[3] = Lox-IMVI anti-proliferative assay, IC50 activity level, read-out: Activity

| IC50 [2] [nM] | SMILES | further results |
| --- | --- | --- |
|  | NC(=O)[C@H]1CC[C@@H](n2c(Nc3c(F)cc(F)cc3Cl)nc3cnc(NC[C@@H]4CCCC[C@@H]4O)nc32)CC1 [Example 653, (1R,4s)-4-(8-(2-chloro-4,6-difluorophenylamino)-2-(((1S,2S)-2-hydroxycyclohexyl)methylamino)-9H-purin-9-yl)cyclohexanecarboxamide] | IC50 [1]: > 1000 nM |
| < 250 | NC(=O)[C@H]1CC[C@@H](n2c(Nc3c(F)cc(Cl)cc3Cl)nc3cnc(N[C@@H]4CCC[C@H](O)C4)nc32)CC1 [Example 361, (1S,4s)-4-(8-(2,4-dichloro-6-fluorophenylamino)-2-((1R,3S)-3-hydroxycyclohexylamino)-9H-purin-9-yl)cyclohexanecarboxamide] |  |
| > 1000 | NC(=O)[C@H]1CC[C@@H](n2c(Nc3ccc(Cl)c(F)c3F)nc3cnc(N[C@H]4CCC[C@@H](O)C4)nc32)CC1 [Example 375, (1R,4s)-4-(8-(4-chloro-2,3-difluorophenylamino)-2-((1S,3R)-3-hydroxycyclohexylamino)-9H-purin-9-yl)cyclohexanecarboxamide] |  |
| > 1000 | NC(=O)[C@H]1CC[C@@H](n2c(Nc3c(F)cc(F)cc3Cl)nc3cnc(N[C@@H]4CCC[C@H](O)C4)nc32)CC1 [Example 351, (1S,4s)-4-(8-(2-chloro-4,6-difluorophenylamino)-2-((1R,3S)-3-hydroxycyclohexylamino)-9H-purin-9-yl)cyclohexanecarboxamide] |  |
| 500 to 1000 | N#Cc1cc(F)c(Nc2nc3cnc(NC4CCC4)nc3n2[C@H]2CC[C@@H](C(N)=O)CC2)c(F)c1 [Example 368, (1s,4s)-4-(8-(4-cyano-2,6-difluorophenylamino)-2-(cyclobutylamino)-9H-purin-9-yl)cyclohexanecarboxamide] |  |
|  | CS(=O)(=O)C1CC(Nc2ncc3nc(Nc4c(Cl)cc(C(F)(F)F)cc4Cl)n([C@H]4CC[C@@H](C(N)=O)CC4)c3n2)C1 (stereo partly shown) [Example 735, (1s,4s)-4-(8-(2,6-dichloro-4-(trifluoromethyl)phenylamino)-2-(3-(methylsulfonyl)cyclobutylamino)-9H-purin-9-yl)cyclohexanecarboxamide] | IC50 [1]: > 1000 nM |
| > 1000 | NC(=O)[C@H]1CC[C@@H](n2c(Nc3c(F)ccc(Cl)c3F)nc3cnc(N[C@H]4C[C@H](O)C4)nc32)CC1 [Example 286, (1s,4s)-4-(8-(3-chloro-2,6-difluorophenylamino)-2-((1r,3r)-3-hydroxycyclobutylamino)-9H-purin-9-yl)cyclohexanecarboxamide] |  |
|  | CS(=O)(=O)C1CC(Nc2ncc3nc(Nc4c(F)cc(Cl)cc4F)n([C@H]4CC[C@@H](C(N)=O)CC4)c3n2)C1 (stereo partly shown) [Example 736, (1s,4s)-4-(8-(4-chloro-2,6-difluorophenylamino)-2-(3-(methylsulfonyl)cyclobutylamino)-9H-purin-9-yl)cyclohexanecarboxamide] | IC50 [1]: > 1000 nM |
|  | NC(=O)[C@H]1CC[C@@H](n2c(Nc3c(Cl)cc(OC(F)(F)F)cc3Cl)nc3cnc(NC4CCC(F)(F)CC4)nc32)CC1 [Example 596, (1s,4s)-4-(8-(2,6-dichloro-4-(trifluoromethoxy)phenylamino)-2-(4,4-difluorocyclohexylamino)-9H-purin-9-yl)cyclohexanecarboxamide] | IC50 [3]: > 1000 nM |
| 500 to 1000 | NC(=O)[C@H]1CC[C@@H](n2c(Nc3c(F)cc(F)cc3Cl)nc3cnc(N[C@@H]4CCOC4)nc32)CC1 [Example 199, (1S,4s)-4-(8-(2-chloro-4,6-difluorophenylamino)-2-((R)-tetrahydrofuran-3-ylamino)-9H-purin-9-yl)cyclohexanecarboxamide] |  |
| > 1000 | NC(=O)[C@H]1CC[C@@H](n2c(Nc3ccc(Cl)c(F)c3F)nc3cnc(N[C@H]4C[C@H](O)C4)nc32)CC1 [Example 285, (1s,4s)-4-(8-(4-chloro-2,3-difluorophenylamino)-2-((1R,3r)-3-hydroxycyclobutylamino)-9H-purin-9-yl)cyclohexanecarboxamide] |  |
|  | N#Cc1cc(F)c(Nc2nc3cnc(N[C@@H]4CCCN(C(=O)Nc5ccccc5)C4)nc3n2[C@H]2CC[C@@H](C(N)=O)CC2)c(Cl)c1 [Example 785, (R)-3-(9-((1s,4S)-4-carbamoylcyclohexyl)-8-(2-chloro-4-cyano-6-fluorophenylamino)-9H-purin-2-ylamino)-N-phenylpiperidine-1-carboxamide] | IC50 [1]: > 1000 nM |
| 250 to 500 | NC(=O)[C@H]1CC[C@@H](n2c(Nc3c(Cl)cc(Cl)cc3Cl)nc3cnc(NC4CC5(COC5)C4)nc32)CC1 [Example 177, (1s,4s)-4-(2-(2-oxaspiro[3.3]heptan-6-ylamino)-8-(2,4,6-trichlorophenylamino)-9H-purin-9-yl)cyclohexanecarboxamide] |  |
| > 1000 | NC(=O)[C@H]1CC[C@@H](n2c(Nc3c(Cl)cc(Cl)cc3Cl)nc3cnc(N[C@H]4C[C@@H](O)C4)nc32)CC1 [Example 323, (1s,4s)-4-(2-((1s,3s)-3-hydroxycyclobutylamino)-8-(2,4,6-trichlorophenylamino)-9H-purin-9-yl)cyclohexanecarboxamide] |  |
| 500 to 1000 | NC(=O)[C@H]1CC[C@@H](n2c(Nc3c(Cl)cc(Cl)cc3Cl)nc3cnc(NC4CCC(F)(F)CC4)nc32)CC1 [Example 88, (1s,4s)-4-(2-(4,4-difluorocyclohexylamino)-8-(2,4,6-trichlorophenylamino)-9H-purin-9-yl)cyclohexanecarboxamide] |  |
|  | NC(=O)[C@H]1CC[C@@H](n2c(Nc3c(F)cc(Cl)cc3F)nc3cnc(NCC(F)(F)CO)nc32)CC1 [Example 453, (1s,4s)-4-(8-(4-chloro-2,6-difluorophenylamino)-2-(2,2-difluoro-3-hydroxypropylamino)-9H-purin-9-yl)cyclohexanecarboxamide] | IC50 [3]: > 1000 nM |
| < 250 | NC(=O)[C@H]1CC[C@@H](n2c(Nc3c(F)cc(F)cc3F)nc3cnc(NC4CCOCC4)nc32)CC1 [Example 11] |  |
|  | CS(=O)(=O)N1CCC[C@@H](Nc2ncc3nc(Nc4c(Cl)cc(C#N)cc4Cl)n([C@H]4CC[C@@H](C(N)=O)CC4)c3n2)C1 [Example 702, (1S,4s)-4-(8-(2,6-dichloro-4-cyanophenylamino)-2-((R)-1-(methylsulfonyl)piperidin-3-ylamino)-9H-purin-9-yl)cyclohexanecarboxamide] | IC50 [1]: > 1000 nM |
|  | CS(=O)(=O)C1CC(Nc2ncc3nc(Nc4c(F)cc(Cl)cc4Cl)n([C@H]4CC[C@@H](C(N)=O)CC4)c3n2)C1 (stereo partly shown) [Example 731, (1s,4s)-4-(8-(2,4-dichloro-6-fluorophenylamino)-2-(3-(methylsulfonyl)cyclobutylamino)-9H-purin-9-yl)cyclohexanecarboxamide] | IC50 [1]: > 1000 nM |
|  | C[C@]1(C(N)=O)CC[C@H](n2c(Nc3c(F)cc(Cl)cc3Cl)nc3cnc(NC4CCCC4)nc32)CC1 [Example 492, (1r,4r)-4-(2-(cyclopentylamino)-8-(2,4-dichloro-6-fluorophenylamino)-9H-purin-9-yl)-1-methylcyclohexanecarboxamide] | IC50 [3]: 500 to 1000 nM |
|  | NC(=O)[C@H]1CC[C@@H](n2c(Nc3c(Cl)cccc3Cl)nc3cnc(N[C@@H]4CCC[C@@H](O)C4)nc32)CC1 [Example 417, (1S,4s)-4-(8-(2,6-dichlorophenylamino)-2-((1R,3R)-3-hydroxycyclohexylamino)-9H-purin-9-yl)cyclohexanecarboxamide] | IC50 [3]: > 1000 nM |
|  | NC(=O)[C@H]1CC[C@@H](n2c(Nc3c(F)cc(Cl)cc3F)nc3cnc(N[C@@H]4CCC(F)(F)C4)nc32)CC1 [Example 588, (1S,4s)-4-(8-(4-chloro-2,6-difluorophenylamino)-2-((R)-3,3-difluorocyclopentylamino)-9H-purin-9-yl)cyclohexanecarboxamide] | IC50 [3]: < 250 nM |
| > 1000 | NC(=O)[C@H]1CC[C@@H](n2c(Nc3c(Cl)cc(F)cc3Cl)nc3cnc(N[C@H]4CCCOC4)nc32)CC1 [Example 202, (1R,4s)-4-(8-(2,6-dichloro-4-fluorophenylamino)-2-((S)-tetrahydro-2H-pyran-3-ylamino)-9H-purin-9-yl)cyclohexanecarboxamide] |  |
|  | NC(=O)[C@H]1CC[C@@H](n2c(Nc3c(F)cc(Cl)cc3F)nc3cnc(N[C@H]4CCC[C@H](O)C4)nc32)CC1 [Example 460, (1R,4s)-4-(8-(4-chloro-2,6-difluorophenylamino)-2-((1S,3S)-3-hydroxycyclohexylamino)-9H-purin-9-yl)cyclohexanecarboxamide] | IC50 [3]: > 1000 nM |
| 500 to 1000 | NC(=O)[C@H]1CC[C@@H](n2c(Nc3c(Cl)cccc3Cl)nc3cnc(N[C@H]4CC[C@H](O)C4)nc32)CC1 [Example 327, (1R,4s)-4-(8-(2,6-dichlorophenylamino)-2-((1S,3S)-3-hydroxycyclopentylamino)-9H-purin-9-yl)cyclohexanecarboxamide] |  |
| > 1000 | C[C@@H]1CC[C@@H](Nc2ncc3nc(Nc4ccc(Cl)c(F)c4F)n([C@H]4CC[C@@H](C(N)=O)CC4)c3n2)C[C@H]1O [Example 357, (1S,4s)-4-(8-(4-chloro-2,3-difluorophenylamino)-2-((1R,3R,4R)-3-hydroxy-4-methylcyclohexylamino)-9H-purin-9-yl)cyclohexanecarboxamide] |  |
|  | Cc1ccc(S(=O)(=O)N2CCC[C@@H](Nc3ncc4nc(Nc5c(F)cc(Cl)cc5F)n([C@H]5CC[C@@H](C(N)=O)CC5)c4n3)C2)cc1 [Example 792, (1S,4s)-4-(8-(4-chloro-2,6-difluorophenylamino)-2-((R)-1-tosylpiperidin-3-ylamino)-9H-purin-9-yl)cyclohexanecarboxamide] | IC50 [1]: > 1000 nM |
| > 1000 | NC(=O)[C@H]1CC[C@@H](n2c(Nc3c(F)ccc(Cl)c3F)nc3cnc(N[C@H]4CCC[C@@H]4O)nc32)CC1 [Example 273, (1R,4s)-4-(8-(3-chloro-2,6-difluorophenylamino)-2-((1S,2S)-2-hydroxycyclopentylamino)-9H-purin-9-yl)cyclohexanecarboxamide] |  |
